This experiment relates to Monocotyledonous and dicotyledonous test plants. Kind of experiment: Herbicidal action, application pre-emergence (Example B1). It counts as in vivo. On the set-up: key: 10=total damage to plant; 0=no damage to plant. The conditions noted are these: 1000 g/ha, scale 10=total damage to plant, 0=no damage to plant, evaluated after 9 or 13 days. The protocol:
Monocotyledonous and dicotyledonous test plants were sown in sterilised standard soil in seed trays each having 96 cells. After one day (pre-emergence) or after 8 to 9 days cultivation (post-emergence) under controlled conditions in a climatic chamber (cultivation at 17/23° C.; 13 hours light; 50-60% humidity; after application at 19/24° C.), the plants were treated with an aqueous spray solution of 1000 mg/l of the active ingredient used (including 10% DMSO as solvent). The plants were grown on in the climatic chamber until the test was evaluated (10=total damage to plant, 0=no damage to plant) after 9 or 13 days.

Structures are written as SMILES.

As for `CC1(C)CC(S(=N)(=O)C(Cl)c2c(F)cccc2F)=NO1` (mixture of isomers) [1.02], the “Herbicidal action on Agrostis (damage rating)” value (shortened to “Herbicidal action on Agrostis”) was 10, the “Herbicidal action on Digitaria (damage rating)” value (from here on “Herbicidal action on Digitaria”) turned out to be 10, the “Herbicidal action on Poa (damage rating)” value is on record as 10 and the “Herbicidal action on Setaria (damage rating)” value (from here on “Herbicidal action on Setaria”) is 10.

In the case of `CC(Cl)OC(=O)N=S(=O)(Cc1c(F)cccc1F)C1=NOC(C)(C)C1` (mixture of isomers) [1.17], the “Herbicidal action on Agrostis” value came out at 10, the “Herbicidal action on Digitaria” value was 8, the “Herbicidal action on Poa (damage rating)” value worked out at 10 and the “Herbicidal action on Setaria” value is 8.

In the case of `CC1(C)CC(S(=N)(=O)C(F)c2ccccc2OC(F)(F)F)=NO1` (mixture of isomers) [1.56], the “Herbicidal action on Agrostis” value is on record as 10, the “Herbicidal action on Digitaria” value amounted to 9, the “Herbicidal action on Poa (damage rating)” value worked out at 10 and the “Herbicidal action on Setaria” value came out at 8.

As to `CC1(C)CC(S(=O)(=NC(=O)C(F)(F)F)C(Cl)c2c(F)cccc2F)=NO1` (stereo not drawn) [1.05], the “Herbicidal action on Agrostis” value is given as 10, the “Herbicidal action on Digitaria” value stood at 9, the “Herbicidal action on Poa (damage rating)” value is recorded as 10 and the “Herbicidal action on Setaria” value came to 9.

Turning to `CC(C)(C)OC(=O)N=S(=O)(Cc1c(F)cccc1F)C1=NOC(C)(C)C1` (stereo not drawn) [1.06], the “Herbicidal action on Agrostis” value amounted to 9, the “Herbicidal action on Digitaria” value was 7, the “Herbicidal action on Poa (damage rating)” value turned out to be 6 and the “Herbicidal action on Setaria” value is recorded as 10.

As to `CC(=O)N=S(=O)(Cc1c(F)cccc1F)C1=NOC(C)(C)C1` (stereo not drawn) [1.07], the “Herbicidal action on Agrostis” value stood at 10, the “Herbicidal action on Digitaria” value is given as 9, the “Herbicidal action on Poa (damage rating)” value was 10 and the “Herbicidal action on Setaria” value worked out at 9.

For `CN=S(=O)(Cc1c(F)cccc1F)C1=NOC(C)(C)C1` (stereo not drawn) [1.08, 3-{2,6-difluoro-phenylmethane(N-methyl)sulfoximinyl)-5,5-dimethyl-4,5-dihydroisoxazole], the “Herbicidal action on Agrostis” value was 10, the “Herbicidal action on Digitaria” value came to 7, the “Herbicidal action on Poa (damage rating)” value is recorded as 10 and the “Herbicidal action on Setaria” value came to 9.

On to `CC1(C)CC(S(=O)(Cc2c(F)cccc2F)=NC=O)=NO1` (stereo not drawn) [1.13], for which the “Herbicidal action on Agrostis” value turned out to be 10, the “Herbicidal action on Digitaria” value is reported as 9, the “Herbicidal action on Poa (damage rating)” value is on record as 10 and the “Herbicidal action on Setaria” value is 9.

As for `CC1(C)CC(S(=O)(Cc2c(F)cccc2F)=N[N+](=O)[O-])=NO1` (stereo not drawn) [1.15], the “Herbicidal action on Agrostis” value is 10, the “Herbicidal action on Digitaria” value stood at 9, the “Herbicidal action on Poa (damage rating)” value was found to be 10 and the “Herbicidal action on Setaria” value is listed as 8.

For the compound `CC(c1c(F)cccc1F)S(=O)(=NC(=O)C(F)(F)F)C1=NOC(C)(C)C1` (stereo not drawn) [1.19], the “Herbicidal action on Agrostis” value turned out to be 10, the “Herbicidal action on Digitaria” value is 9, the “Herbicidal action on Poa (damage rating)” value was 6 and the “Herbicidal action on Setaria” value is 9.

`CC(c1c(F)cccc1F)S(=O)(=NC(=O)C(F)(F)F)C1=NOC(C)(C)C1` (stereo not drawn) [1.20]: the “Herbicidal action on Agrostis” value came to 9, the “Herbicidal action on Digitaria” value was 8, the “Herbicidal action on Poa (damage rating)” value was 4 and the “Herbicidal action on Setaria” value is listed as 8.

As to `CC1(C)CC(S(=O)(Cc2c(F)cccc2F)=NC(=O)c2cccnc2Cl)=NO1` (stereo not drawn) [1.21], the “Herbicidal action on Agrostis” value came to 10, the “Herbicidal action on Digitaria” value is 9, the “Herbicidal action on Poa (damage rating)” value came out at 10 and the “Herbicidal action on Setaria” value was 9.

Take `CC1(C)CC(S(=N)(=O)C(F)(F)c2c(F)cccc2F)=NO1` (stereo not drawn) [1.22]: the “Herbicidal action on Agrostis” value is recorded as 10, the “Herbicidal action on Digitaria” value amounted to 10, the “Herbicidal action on Poa (damage rating)” value is reported as 10 and the “Herbicidal action on Setaria” value is on record as 10.

For `CC1(C)CC(S(=N)(=O)Cc2ccccc2OC(F)(F)F)=NO1` (stereo not drawn) [1.24], the “Herbicidal action on Agrostis” value was 10, the “Herbicidal action on Digitaria” value was 9, the “Herbicidal action on Poa (damage rating)” value was found to be 0 and the “Herbicidal action on Setaria” value was found to be 8.

For `CC1(C)CC(S(=N)(=O)Cc2ccccc2OC(F)F)=NO1` (stereo not drawn) [1.25], the “Herbicidal action on Agrostis” value stood at 10, the “Herbicidal action on Digitaria” value was determined as 9, the “Herbicidal action on Poa (damage rating)” value amounted to 10 and the “Herbicidal action on Setaria” value is listed as 8.

Turning to `Cc1ccccc1CS(=N)(=O)C1=NOC(C)(C)C1` (stereo not drawn) [1.27], the “Herbicidal action on Agrostis” value is 5, the “Herbicidal action on Digitaria” value stood at 8, the “Herbicidal action on Poa (damage rating)” value turned out to be 0 and the “Herbicidal action on Setaria” value came to 5.

As to `Cc1ccc(F)c(CS(=N)(=O)C2=NOC(C)(C)C2)c1F` (stereo not drawn) [1.28], the “Herbicidal action on Agrostis” value is reported as 10, the “Herbicidal action on Digitaria” value worked out at 9, the “Herbicidal action on Poa (damage rating)” value was 10 and the “Herbicidal action on Setaria” value was determined as 8.

Regarding `CC1(C)CC(S(=N)(=O)Cc2cccc(F)c2F)=NO1` (stereo not drawn) [1.29], the “Herbicidal action on Agrostis” value was found to be 10, the “Herbicidal action on Digitaria” value is given as 8, the “Herbicidal action on Poa (damage rating)” value was 10 and the “Herbicidal action on Setaria” value turned out to be 6.

On to `CC1(C)CC(S(=N)(=O)Cc2ccc(F)cc2F)=NO1` (stereo not drawn) [1.30], for which the “Herbicidal action on Agrostis” value is reported as 10, the “Herbicidal action on Digitaria” value came to 10, the “Herbicidal action on Poa (damage rating)” value was determined as 10 and the “Herbicidal action on Setaria” value is given as 8.

Consider `CC1(C)CC(S(=N)(=O)Cc2ccccc2C(F)(F)F)=NO1` (stereo not drawn) [1.31], for which the “Herbicidal action on Agrostis” value worked out at 10, the “Herbicidal action on Digitaria” value came out at 8, the “Herbicidal action on Poa (damage rating)” value stood at 8 and the “Herbicidal action on Setaria” value stood at 8.

As to `CC1(C)CC(S(=N)(=O)Cc2c(F)cccc2C(F)(F)F)=NO1` (stereo not drawn) [1.32], the “Herbicidal action on Agrostis” value is 10, the “Herbicidal action on Digitaria” value came out at 10, the “Herbicidal action on Poa (damage rating)” value is 10 and the “Herbicidal action on Setaria” value stood at 9.

Turning to `CC1(C)CC(S(=N)(=O)Cc2cc(F)ccc2F)=NO1` (stereo not drawn) [1.34], the “Herbicidal action on Agrostis” value was 10, the “Herbicidal action on Digitaria” value is recorded as 9, the “Herbicidal action on Poa (damage rating)” value amounted to 10 and the “Herbicidal action on Setaria” value is 8.

Consider `CC1(C)CC(S(=O)(=NC(=O)c2ccccc2)C(F)c2c(F)cccc2F)=NO1` (stereo not drawn) [1.35], for which the “Herbicidal action on Agrostis” value came out at 10, the “Herbicidal action on Digitaria” value came to 8, the “Herbicidal action on Poa (damage rating)” value was 10 and the “Herbicidal action on Setaria” value is reported as 8.

`CC1(C)CC(S(=O)(Cc2c(F)cccc2F)=NC(=O)c2ccccc2)=NO1` (stereo not drawn) [1.36]: the “Herbicidal action on Agrostis” value came out at 10, the “Herbicidal action on Digitaria” value worked out at 5, the “Herbicidal action on Poa (damage rating)” value worked out at 0 and the “Herbicidal action on Setaria” value turned out to be 7.

Source of the values: patent publication US7465805B2, “Isoxazoline derivatives and their use as herbicides” (Syngenta Limited, priority 2004, dated 2008).
